Assay results reported in the NIST ThermoML archive (doi:10.1016/j.jct.2006.12.012).

Assay: xn = mol fraction of the nth substance listed
Conditions: 101 kPa, Liquid

C[S+](C)[O-] [dimethyl sulfoxide] + O
Conditions | mass density, 298.15 K [kg/m3] | mass density, 303.15 K [kg/m3] | mass density, 308.15 K [kg/m3] | mass density, 313.15 K [kg/m3] | mass density, 318.15 K [kg/m3] | viscosity, 298.15 K [mPa·s] | viscosity, 303.15 K [mPa·s] | viscosity, 308.15 K [mPa·s] | viscosity, 313.15 K [mPa·s] | viscosity, 318.15 K [mPa·s]
x1 = 0.0238 | 1009.5 | 1007.8 | 1005.89 | 1003.79 | 1001.51 | 1.033 | 0.9386 | 0.8541 | 0.7751 | 0.6982
x1 = 0.0489 | 1021.56 | 1019.59 | 1017.38 | 1015.03 | 1012.48 | 1.258 | 1.148 | 1.041 | 0.9371 | 0.8322
x1 = 0.0796 | 1034.64 | 1032.3 | 1029.76 | 1027.04 | 1024.2 | 1.597 | 1.454 | 1.309 | 1.165 | 1.02
x1 = 0.1183 | 1048.91 | 1046.26 | 1043.35 | 1040.22 | 1036.98 | 2.067 | 1.872 | 1.671 | 1.471 | 1.269
x1 = 0.1587 | 1061.32 | 1058.32 | 1055.11 | 1051.58 | 1047.91 | 2.549 | 2.295 | 2.036 | 1.778 | 1.519
x1 = 0.2036 | 1072.5 | 1069.04 | 1065.5 | 1061.82 | 1057.83 | 3.017 | 2.704 | 2.389 | 2.075 | 1.761
x1 = 0.2379 | 1079.21 | 1075.61 | 1071.77 | 1067.99 | 1063.81 | 3.301 | 2.954 | 2.604 | 2.258 | 1.911
x1 = 0.2768 | 1085.26 | 1081.43 | 1077.51 | 1073.27 | 1069.16 | 3.537 | 3.162 | 2.786 | 2.413 | 2.04
x1 = 0.3074 | 1088.96 | 1085.02 | 1080.99 | 1076.81 | 1072.4 | 3.656 | 3.269 | 2.881 | 2.496 | 2.11
x1 = 0.3335 | 1091.44 | 1087.45 | 1083.41 | 1079.21 | 1074.68 | 3.714 | 3.322 | 2.93 | 2.54 | 2.149
x1 = 0.3638 | 1093.61 | 1089.68 | 1085.47 | 1081.11 | 1076.63 | 3.735 | 3.344 | 2.953 | 2.562 | 2.172
x1 = 0.3906 | 1095.11 | 1091.09 | 1086.84 | 1082.43 | 1077.78 | 3.717 | 3.331 | 2.946 | 2.56 | 2.175
x1 = 0.4412 | 1097.04 | 1092.88 | 1088.48 | 1084.05 | 1079.52 | 3.606 | 3.241 | 2.876 | 2.508 | 2.142
x1 = 0.5193 | 1098.34 | 1094.01 | 1089.48 | 1085.1 | 1080.42 | 3.312 | 2.992 | 2.671 | 2.348 | 2.025
x1 = 0.5677 | 1098.66 | 1094.24 | 1089.61 | 1085.12 | 1080.33 | 3.102 | 2.81 | 2.519 | 2.227 | 1.934
x1 = 0.6195 | 1098.86 | 1094.29 | 1089.61 | 1085.01 | 1080.01 | 2.883 | 2.62 | 2.355 | 2.097 | 1.835
x1 = 0.6813 | 1098.85 | 1094.13 | 1089.3 | 1084.66 | 1079.61 | 2.656 | 2.421 | 2.183 | 1.958 | 1.727
x1 = 0.7595 | 1098.49 | 1093.75 | 1088.81 | 1083.92 | 1078.92 | 2.432 | 2.225 | 2.009 | 1.818 | 1.616
x1 = 0.8095 | 1098.02 | 1093.29 | 1088.4 | 1083.63 | 1078.58 | 2.32 | 2.129 | 1.926 | 1.749 | 1.559
x1 = 0.8856 | 1097.3 | 1092.53 | 1087.58 | 1082.75 | 1077.68 | 2.175 | 2.006 | 1.818 | 1.659 | 1.486
x1 = 0.9407 | 1096.83 | 1091.95 | 1086.95 | 1082.04 | 1076.93 | 2.08 | 1.92 | 1.746 | 1.599 | 1.438
x1 = 0.9781 | 1096.41 | 1091.56 | 1086.54 | 1081.71 | 1076.53 | 2.024 | 1.863 | 1.697 | 1.558 | 1.409
x1 = 1 | 1096.29 | 1091.44 | 1086.41 | 1081.59 | 1076.46 | 1.996 | 1.836 | 1.669 | 1.535 | 1.393
